Data from patent publication US8969554B2, “6-acyl-1,2,4-triazine-3,5-dione derivative and herbicides” (Kumiai Chemical Industry Co., Ltd., priority 2010, dated 2015).

How the values were obtained:
Assay type in all cases: in vivo
Set-up in all cases: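 index 0 to 10 in 10% steps of herbicidal effect with 10 meaning complete death and 0 below 10%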
[1] = test system: A. retroflexus; experiment: Herbicidal activity by field foliage treatment (Test example 3); conditions: 1000 g effective component per hectare, day 14 after the treatment
Description: (§1) [table] Test for Determining Herbicidal Activity by Field Foliage Treatment A 80 cm^2 wide plastic pot was filled with a field soil and seeds of each of Indian millet and A. retroflexus were sowed and then incubated for 2 weeks in a green house. The wettable powder produced with reference to the Formulation example 1 was diluted water, and applied from the air to entire body of the plant as foliage treatment by using a small sprayer in an amount of 1000 liters per hectare so that the effective component is 1000 g per hectare. After that, the plants were cultivated in a greenhouse, and on day 14 after the treatment, evaluation was made by the criteria described in Table 72 for determining the herbicidal effects.

[2] = test system: Indian millet; experiment: as above; conditions: 1000 g effective component per hectare, day 14 after the treatment
Description: as §1

[3] = test system: Monochoria vaginalis; experiment: Herbicidal activity by paddy field soil treatment (Test Example 1); conditions: 1000 g of effective component per hectare, evaluated on day 21 after the treatment, criteria of Table 72
Description: (§2) Test for Determining Herbicidal Activity by Paddy Field Soil Treatment A 100 cm^2 wide plastic pot was filled with a paddy field soil and, after watering and shuffling, seeds of each of Echinochloa oryzicola, Monochoria vaginalis, and Scirpus juncoides Rocxb. were sowed and watered to a depth of 3 cm. On the next day, the wettable powder obtained in view of Formulation example 1 was diluted with water and applied on water surface. The application amount was 1000 g of effective component per hectare. After that, the plants were cultivated in a greenhouse, and on day 21 after the treatment, evaluation was made by the criteria of Table 72 for determining the herbicidal effects. [table]

[4] = test system: Scirpus juncoides Rocxb.; experiment: as above; conditions: applied on water surface, 1000 g of effective component per hectare, day 21 after the treatment
Description: as §2

[5] = test system: A. retroflexus; experiment: Herbicidal activity by field soil treatment (Test example 2); conditions: 1000 g effective component per hectare, day 21 after the treatment
Description: (§3) [table] Test for Determining Herbicidal Activity by Field Soil Treatment A 80 cm^2 wide plastic pot was filled with a field soil and seeds of each of Echinochloa crus-galli, foxtail, Indian millet, and A. retroflexus were sowed and then covered with soil. The wettable powder produced with reference to the Formulation example 1 was diluted water, and applied on the soil surface by using a small sprayer in an amount of 1000 liters per hectare so that the effective component is 1000 g per hectare. After that, the plants were cultivated in a greenhouse, and on day 21 after the treatment, evaluation was made by the criteria described in Table 72 for determining the herbicidal effects.

[6] = test system: Indian millet; experiment: as above; conditions: 1000 g effective component per hectare, day 21 after the treatment
Description: as §3

[7] = test system: Echinochloa oryzicola; experiment: Herbicidal activity by paddy field soil treatment (Test Example 1); conditions: 1000 g of effective component per hectare, evaluated on day 21 after the treatment, criteria of Table 72
Description: as §2

[8] = test system: Echinochloa crus-galli; experiment: Herbicidal activity by field foliage treatment (Test example 3); conditions: 1000 g effective component per hectare, day 14 after the treatment
Description: as §1, with “Test example 3” for “[table]”

## Cn1nc(C(=O)C2=C(O)CCCC2=O)c(=O)n(CS(C)(=O)=O)c1=O [Compound I-47]
[1]
  herbicidal effect index, Amaranthus retroflexus: 10
[2]
  herbicidal effect index, Abutilon theophrasti: 9
[3]
  Herbicidal effects index number, Monochoria vaginalis: 10
[4]
  herbicidal effect index, S. juncoides Rocxb.: 10
[5]
  herbicidal effect index, Amaranthus retroflexus: 10

## COc1ccc(-n2c(=O)c(C(=O)C3=C(O)CCCC3=O)nn(C)c2=O)cc1 [Compound I-62]
[1]
  herbicidal effect index, Amaranthus retroflexus: 10
[2]
  herbicidal effect index, Abutilon theophrasti: 9
[3]
  Herbicidal effects index number, Monochoria vaginalis: 8

## COc1cc(OC)cc(-n2c(=O)c(C(=O)C3=C(O)CCCC3=O)nn(C)c2=O)c1 [Compound I-94]
[1]
  herbicidal effect index, Amaranthus retroflexus: 10
[2]
  herbicidal effect index, Abutilon theophrasti: 10
[3]
  Herbicidal effects index number, Monochoria vaginalis: 10
[4]
  herbicidal effect index, S. juncoides Rocxb.: 10
[5]
  herbicidal effect index, Amaranthus retroflexus: 10
[6]
  herbicidal effect index, Abutilon theophrasti: 10

## Cc1cc(-n2c(=O)c(C(=O)C3=C(O)CCCC3=O)nn(C)c2=O)no1 [I-189]
[1]
  herbicidal effect index, Amaranthus retroflexus: 10
[2]
  herbicidal effect index, Abutilon theophrasti: 9
[3]
  Herbicidal effects index number, Monochoria vaginalis: 10
[4]
  herbicidal effect index, S. juncoides Rocxb.: 10
[5]
  herbicidal effect index, Amaranthus retroflexus: 10
[6]
  herbicidal effect index, Abutilon theophrasti: 10

## Cn1nc(C(=O)C2=C(O)CCCC2=O)c(=O)n(N2CCS(=O)(=O)CC2)c1=O [I-204]
[1]
  herbicidal effect index, Amaranthus retroflexus: 7
[3]
  Herbicidal effects index number, Monochoria vaginalis: 8

## Cn1nc(C(=O)C2=C(O)CCCC2=O)c(=O)n(Cc2ccccc2)c1=O [I-205]
[1]
  herbicidal effect index, Amaranthus retroflexus: 10
[2]
  herbicidal effect index, Abutilon theophrasti: 10
[3]
  Herbicidal effects index number, Monochoria vaginalis: 10
[4]
  herbicidal effect index, S. juncoides Rocxb.: 10
[7]
  Herbicidal effects index number, Echinochloa oryzicola: 7

## O=C1CCCC(O)=C1C(=O)c1nn(-c2ccccc2)c(=O)n(-c2ccccc2)c1=O [I-262]
[3]
  Herbicidal effects index number, Monochoria vaginalis: 8

## Cn1nc(C(F)(F)F)cc1-n1c(=O)c(C(=O)C2=C(O)CCCC2=O)nn(C)c1=O [I-272]
[1]
  herbicidal effect index, Amaranthus retroflexus: 10
[2]
  herbicidal effect index, Abutilon theophrasti: 9
[3]
  Herbicidal effects index number, Monochoria vaginalis: 8
[4]
  herbicidal effect index, S. juncoides Rocxb.: 8
[7]
  Herbicidal effects index number, Echinochloa oryzicola: 7
[8]
  herbicidal effect index, Echinochloa crus-galli: 6
[5]
  herbicidal effect index, Amaranthus retroflexus: 8

## COc1ccc(-n2c(=O)c(C(=O)C3=C(O)CCCC3=O)nn(C)c2=O)nc1 [I-290]
[1]
  herbicidal effect index, Amaranthus retroflexus: 10
[2]
  herbicidal effect index, Abutilon theophrasti: 9
[3]
  Herbicidal effects index number, Monochoria vaginalis: 10
[4]
  herbicidal effect index, S. juncoides Rocxb.: 10
[5]
  herbicidal effect index, Amaranthus retroflexus: 8
[6]
  herbicidal effect index, Abutilon theophrasti: 10

## Cc1ccc(-n2c(=O)c(C(=O)C3=C(O)CCCC3=O)nn(C)c2=S)nc1 [I-291]
[1]
  herbicidal effect index, Amaranthus retroflexus: 10
[2]
  herbicidal effect index, Abutilon theophrasti: 9
[3]
  Herbicidal effects index number, Monochoria vaginalis: 10
[4]
  herbicidal effect index, S. juncoides Rocxb.: 10
[5]
  herbicidal effect index, Amaranthus retroflexus: 8
[6]
  herbicidal effect index, Abutilon theophrasti: 10

## C=Cc1ccc(-n2c(=O)c(C(=O)C3=C(O)CCCC3=O)nn(C)c2=O)nc1 [I-293]
[1]
  herbicidal effect index, Amaranthus retroflexus: 10
[2]
  herbicidal effect index, Abutilon theophrasti: 8
[3]
  Herbicidal effects index number, Monochoria vaginalis: 10
[4]
  herbicidal effect index, S. juncoides Rocxb.: 10
[6]
  herbicidal effect index, Abutilon theophrasti: 10

## CCCCCCCCn1c(=O)c(C(=O)C2=C(O)CCCC2=O)nn(C)c1=O [I-295]
[1]
  herbicidal effect index, Amaranthus retroflexus: 8
[2]
  herbicidal effect index, Abutilon theophrasti: 9

## Cn1nc(C(=O)C2=C(O)CCCC2=O)c(=O)n(-c2cc(Cl)c(S(C)(=O)=O)c(Cl)c2)c1=O [I-301]
[1]
  herbicidal effect index, Amaranthus retroflexus: 10
[2]
  herbicidal effect index, Abutilon theophrasti: 7
[3]
  Herbicidal effects index number, Monochoria vaginalis: 10
[4]
  herbicidal effect index, S. juncoides Rocxb.: 10
[7]
  Herbicidal effects index number, Echinochloa oryzicola: 10

## CCCCn1c(=O)c(C(=O)C2=C(O)CCCC2=O)nn(-c2ccccn2)c1=O [I-306]
[1]
  herbicidal effect index, Amaranthus retroflexus: 7
[2]
  herbicidal effect index, Abutilon theophrasti: 9
[3]
  Herbicidal effects index number, Monochoria vaginalis: 9
[5]
  herbicidal effect index, Amaranthus retroflexus: 10
[6]
  herbicidal effect index, Abutilon theophrasti: 7

## CCCCCn1nc(C(=O)C2=C(O)CCCC2=O)c(=O)n(-c2ccccc2)c1=O [I-308]
[2]
  herbicidal effect index, Abutilon theophrasti: 8
[3]
  Herbicidal effects index number, Monochoria vaginalis: 8
[5]
  herbicidal effect index, Amaranthus retroflexus: 10

## CCc1ccc(-n2c(=O)c(C(=O)C3=C(O)CCCC3=O)nn(C)c2=O)nc1 [I-462]
[1]
  herbicidal effect index, Amaranthus retroflexus: 10
[2]
  herbicidal effect index, Abutilon theophrasti: 10
[3]
  Herbicidal effects index number, Monochoria vaginalis: 10
[4]
  herbicidal effect index, S. juncoides Rocxb.: 10
[5]
  herbicidal effect index, Amaranthus retroflexus: 9
[6]
  herbicidal effect index, Abutilon theophrasti: 10

## CN(c1ccccc1)n1c(=O)c(C(=O)C2=C(O)CCCC2=O)nn(C)c1=O [I-466]
[1]
  herbicidal effect index, Amaranthus retroflexus: 10
[2]
  herbicidal effect index, Abutilon theophrasti: 10
[3]
  Herbicidal effects index number, Monochoria vaginalis: 10
[4]
  herbicidal effect index, S. juncoides Rocxb.: 10
[7]
  Herbicidal effects index number, Echinochloa oryzicola: 8

## Cc1cc(C)nc(-n2c(=O)c(C(=O)C3=C(O)CCCC3=O)nn(C)c2=O)n1 [I-467]
[1]
  herbicidal effect index, Amaranthus retroflexus: 10
[2]
  herbicidal effect index, Abutilon theophrasti: 7
[3]
  Herbicidal effects index number, Monochoria vaginalis: 10
[4]
  herbicidal effect index, S. juncoides Rocxb.: 10
[8]
  herbicidal effect index, Echinochloa crus-galli: 8

## Cc1cc(C)c(-n2c(=O)c(C(=O)C3=C(O)CCCC3=O)nn(C)c2=O)c(C)c1 [I-472]
[1]
  herbicidal effect index, Amaranthus retroflexus: 10
[2]
  herbicidal effect index, Abutilon theophrasti: 7
[3]
  Herbicidal effects index number, Monochoria vaginalis: 10
[4]
  herbicidal effect index, S. juncoides Rocxb.: 8

## Cn1nc(C(=O)C2=C(O)CCCC2=O)c(=O)n(-c2c(F)c(F)c(F)c(F)c2F)c1=O [I-473]
[1]
  herbicidal effect index, Amaranthus retroflexus: 3
[2]
  herbicidal effect index, Abutilon theophrasti: 10
[3]
  Herbicidal effects index number, Monochoria vaginalis: 10
[4]
  herbicidal effect index, S. juncoides Rocxb.: 8
[7]
  Herbicidal effects index number, Echinochloa oryzicola: 8

## Cn1ncc(C(=O)c2nn(C)c(=O)n(-c3ccccc3)c2=O)c1O [II-50, 6-(5-hydroxy-1-methyl-1H-pyrazole-4-carbonyl)-2-methyl-4-phenyl-1,2,4-triazine-3,5 (2H, 4H)-dione]
[1]
  herbicidal effect index, Amaranthus retroflexus: 10
[2]
  herbicidal effect index, Abutilon theophrasti: 8
[3]
  Herbicidal effects index number, Monochoria vaginalis: 8
[4]
  herbicidal effect index, S. juncoides Rocxb.: 7

## CCCS(=O)(=O)Oc1c(C(=O)c2nn(C)c(=O)n(-c3ccccc3)c2=O)cnn1C(C)C [II-267, 1-isopropyl-4-(2-methyl-3,5-dioxo-4-phenyl-2,3,4,5-tetrahydro-1,2,4-triazine-6-ylcarbonyl)-1H-pyrazole-5-yl propane-1-sulfonate]
[2]
  herbicidal effect index, Abutilon theophrasti: 9
[3]
  Herbicidal effects index number, Monochoria vaginalis: 8

## COc1cccc(-n2c(=O)c(C(=O)O)nn(C)c2=O)c1 [V-61]
[6]
  herbicidal effect index, Abutilon theophrasti: 8

## Cc1ccc(-n2c(=O)c(C(=O)O)nn(C)c2=S)nc1 [V-291]
[3]
  Herbicidal effects index number, Monochoria vaginalis: 8

## CN(c1ccccc1)n1c(=O)c(C(=O)O)nn(C)c1=O [V-359]
[1]
  herbicidal effect index, Amaranthus retroflexus: 10
[2]
  herbicidal effect index, Abutilon theophrasti: 10
[3]
  Herbicidal effects index number, Monochoria vaginalis: 10
[4]
  herbicidal effect index, S. juncoides Rocxb.: 10
[7]
  Herbicidal effects index number, Echinochloa oryzicola: 8

## Cc1cc(C)nc(-n2c(=O)c(C(=O)O)nn(C)c2=O)n1 [V-360]
[1]
  herbicidal effect index, Amaranthus retroflexus: 10
[2]
  herbicidal effect index, Abutilon theophrasti: 7
[3]
  Herbicidal effects index number, Monochoria vaginalis: 10
[4]
  herbicidal effect index, S. juncoides Rocxb.: 10
[8]
  herbicidal effect index, Echinochloa crus-galli: 8

## Cc1cc(C)c(-n2c(=O)c(C(=O)O)nn(C)c2=O)c(C)c1 [V-366]
[1]
  herbicidal effect index, Amaranthus retroflexus: 10
[2]
  herbicidal effect index, Abutilon theophrasti: 7
[3]
  Herbicidal effects index number, Monochoria vaginalis: 10
[4]
  herbicidal effect index, S. juncoides Rocxb.: 8

## Cn1nc(C(=O)O)c(=O)n(-c2c(F)c(F)c(F)c(F)c2F)c1=O [V-367]
[2]
  herbicidal effect index, Abutilon theophrasti: 10
[3]
  Herbicidal effects index number, Monochoria vaginalis: 10
[4]
  herbicidal effect index, S. juncoides Rocxb.: 8
[7]
  Herbicidal effects index number, Echinochloa oryzicola: 8
